Assay results reported in article PMC7162861, “Synthesis, cytotoxicity, pharmacokinetic profile, binding with DNA and BSA of new imidazo[1,2-a]pyrazine-benzo[d]imidazol-5-yl hybrids” (Scientific Reports, 2020).
Like-named read-outs stand apart in the source and are kept apart here.

Experiments:
[1] = system: NCI-60 cancer cell panels; assay: NCI cytotoxicity screen, full panel summary; format: cell-based
Protocol: (§1) Cytotoxicity was performed at National Cancer Institute (NCI), Bethesda, USA as per their protocols.

[2] = target: bovine serum albumin (BSA) (Bos taurus, UniProt P02769); assay: Förster resonance energy transfer (FRET) with BSA; format: binding; settings: BSA donor, compound acceptor
Description: The energy transfer efficiency from BSA and compound 31 can be calculated using Eq. 5 [27]:5 E=1−F/Fo=Ro6/Ro6+r^6
F and Fo are the BSA fluorescence intensities in the presence and absence of the derivative 31, r is the distance among the acceptor and the donor, whereas Ro is the critical distance when the efficiency of energy transfer is 50%. Ro can be calculated using Eq. 6 [28]:6 Ro6=8.8×10^−25k^2η^−4ΦJ where k^2 is the orientation factor of the dipole, ɳ is the refracted index of the medium, Ф the fluorescence quantum yield of the donor, and J is the overlap integral of the fluorescence emission spectrum of the donor with the absorption spectrum of the acceptor. The value of J can be calculated using Eq. 7 [29]:7 J=ΣF(λ)ε(λ)λ^4Δλ/ΣF(λ)Δλ where F(λ) is fluorescence intensity of the donor i.e. BSA without acceptor and ε(λ) is molar absorption coefficient of the acceptor i.e. compound 31 at the wavelength λ, respectively. The values of k^2 = 2/3, ɳ = 1.336 and Ф = 0.15 were used for the calculations.

[3] = NCI cytotoxicity screen, Non-Small Cell Lung Cancer panel; format: cell-based; settings: Homo sapiens; EXVX; five dose 0.01–100 µM; read-out: LC50 (the source's name)
Protocol: as §1

[4] = system: Human Embryonic Kidney cells (HEK293); assay: MTT assay on normal cell line; format: cell-based; settings: 48 h
Protocol: HEK-293 cells (human embryonic kidney cells) were grown in Dulbecco’s modified eagle’s medium (DMEM) supplemented with 100 U/ml penicillin, 10% FBS, […] streptomycin and 50 mM glutamine. Furthermore, cells were harvested using trypsin and seeded in a 96-well cell culture plate for the MTT (3-(4,5-Dimethylthiazol-2-yl)-2,5-diphenyltetrazolium bromide) assay. The test compound was solubilized in cell culture grade DMSO. Once the cells in 96-well plates were 70% confluent, the compound was injected to the cells at five concentrations (0.01, 0.1, 1, 10, 100 µM) at 37 °C for 48 h (made in DMEM supplemented with 1% antibiotic and 10% FBS). After 48 h, cells were washed with PBS and added with 100 μL of fresh media in each well along with 10 μL of MTT reagent (5 mg/mL) for another 4 h. After 4 h, the media was again removed and added 100 μL cell culture grade DMSO to dissolve the formazan crystals formed by the reduction of MTT by live cells. The quantity of formed formazan crystal was determined as alterations in absorbance at 570 nm wavelength using ELISA plate reader (Bio-Tek). All tests were accomplished three times. The cell toxicity (%) was calculated using the following formula: %CellToxicity=100−ODoftreatedwell/ODofuntreatedwell×100

[5] = system: CT-DNA; assay: CT-DNA binding, fluorescence quenching (Stern-Volmer, Scatchard); set-up: species or system calf
Protocol: The stock solution of compound 31 (10^−3 M) was prepared in DMSO and diluted to required concentration using appropriate buffer solution. Calf thymus (CT)-DNA was dissolved in 10 mM Tris buffer of pH 7.4 having 1 mM EDTA at room temperature. The purity of DNA solution was determined by using the ratio of absorbance at 260 nm and 280 nm wavelength. Extinction coefficient 6600 M^−1 cm^−1 of single nucleotide at 260 nm was used to determine the concentration of the DNA solution. The stock solution of BSA (10^−3 M) was prepared in distilled water and stored at 4 °C temperature.
In the case of BSA experiments, fluorescence emission spectra were performed for BSA (10 µM) with increasing concentration of compound 31 (0–10 µM) in phosphate buffer (pH 7.4) at room temperature upon excitation at 280 nm. The dissociation constant of compound 31 was estimated by titrating the complex of compound 31 (10 µM) and BSA (10 µM) with increasing concentration of ibuprofen (0–15 µM), upon excitation at 280 nm. All emission spectra were recorded in the range of 200 to 800 nm.
Binding parameters KSV and Kq were calculated using the Stern-Volmer equation (Eq. 2):2 F0/F=1+Ksv[Analyte]=1+Kqτo[Analyte]
Fo denotes the emission intensity of derivative 31/BSA free from analyte (CT-DNA/ derivative 31), whereas, F denotes the emission intensity of derivative 31/BSA bound with analyte (CT-DNA/derivative 31). The values of KSV and Kq were determined from the plot of Fo/F vs. [analyte].
The binding parameters Kbin and n were determined using Scatchard equation (Eq. 3):3 logF0−F/F=logKbin+nlog[analyte]
Fo and F denote similar factors as those of the above Stern-Volmer equation. The values of Kbin and n were determined from the plot of log (Fo − F)/F vs. log [analyte].

bovine serum albumin (BSA), sequence (P02769 25-607): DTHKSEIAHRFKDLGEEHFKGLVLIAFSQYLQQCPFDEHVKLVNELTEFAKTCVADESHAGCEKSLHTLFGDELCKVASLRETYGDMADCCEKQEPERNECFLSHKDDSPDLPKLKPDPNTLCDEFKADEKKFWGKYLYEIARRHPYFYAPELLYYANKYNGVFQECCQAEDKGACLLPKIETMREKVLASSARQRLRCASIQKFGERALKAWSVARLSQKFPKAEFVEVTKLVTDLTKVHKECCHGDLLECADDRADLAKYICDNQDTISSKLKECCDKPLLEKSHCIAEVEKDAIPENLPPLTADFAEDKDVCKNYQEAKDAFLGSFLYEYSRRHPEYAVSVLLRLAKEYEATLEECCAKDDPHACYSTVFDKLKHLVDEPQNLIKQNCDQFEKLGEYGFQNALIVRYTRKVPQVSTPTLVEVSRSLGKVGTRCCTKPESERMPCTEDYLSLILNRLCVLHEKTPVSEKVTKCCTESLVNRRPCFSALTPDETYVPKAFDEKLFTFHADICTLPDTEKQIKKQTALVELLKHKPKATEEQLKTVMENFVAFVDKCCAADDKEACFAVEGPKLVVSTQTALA

Compound: c1cn2cc(-c3ccc4ncn(C5CCCCC5)c4c3)nc(-c3ccc4c(c3)ncn4C3CCCCC3)c2n1 [Compound 31, 8-(1-cyclohexyl-1H-benzo[d]imidazol-5-yl)-6-(1-cyclohexyl-1H-benzo[d]imidazol-6-yl)imidazo[1,2-a]pyrazine]
- GI50 ([1]; Homo sapiens, read-out: Full panel mean-graph midpoint (MG-MID) GI50): 2120 nM
- GI50 ([1]; Homo sapiens, read-out: GI50 range over nine panels of cell lines): 800 to 2870 nM
- CC50 ([1]; Homo sapiens, average over all cancer cell lines, five dose, read-out: Full panel mean-graph midpoint (MG-MID) LC50): 6.63 µM
- Full panel mean-graph midpoint (MG-MID) TGI ([1]; average over all cancer cell lines, five dose): 4.73 µM
- number of cell lines with cytostatic effect ([1]; single dose 10 µM): 8
- number of cell lines with cytotoxic effect ([1]; single dose 10 µM): 51
- critical distance (Ro) [2]: 2.29 nm
- distance between BSA and the compound (r) [2]: 2.08 nm
- energy transfer efficiency (E) [2]: 64%
- overlap integral value (J) [2]: 5.35 × 10^−15 cm^3 L mol^−1
- CC50 [3]: > 1000 nM
- % survival of HEK293 cells ([4]; 10^−4 M): above 79%
- % survival of HEK293 cells ([4]; 10^−5 M): > 83%
- % survival of HEK293 cells ([4]; 10^−6 M): > 84%
- % survival of HEK293 cells ([4]; 10^−7 M): > 89%
- % survival of HEK293 cells ([4]; 10^−8 M): > 90%
- Ksv (Stern-Volmer constant) ([5]; CT-DNA, pH 7.4, 298 K): 9300 M⁻¹
- Kq (apparent bimolecular quenching constant) ([5]; CT-DNA, τo = 10^−8 s): 9.3e+11 M⁻¹ s⁻¹
- Kbin ([5]; CT-DNA, Scatchard): 95800 M⁻¹
- binding constant (Kbin) ([5]; CT-DNA, Scatchard): 95800 M⁻¹
- n (number of binding sites) ([5]; CT-DNA, Scatchard): 1.21
- KSV ([5]; CT-DNA, Stern-Volmer constant): 9300 M⁻¹
- Kq ([5]; CT-DNA, apparent bimolecular quenching constant): 9.3e+11 M⁻¹ s⁻¹
- quenching of fluorescence intensity ([5]; compound 5 µM, CT-DNA 0–50 µM): 75%
